Key:
[1] = tested on: DT22 triple negative human breast tumor xenografts; experiment: DT22 triple negative breast tumor xenografts in NSG mice; type: in vivo, mouse; conditions: for Expression of FOXM1-regulated genes in tumors: q-PCR at end of treatment
Procedure: In vivo breast cancer xenograft studies For examination of the growth of triple-negative DT22 breast tumors, intact female NOD/SCID-gamma (NSG) mice were used. DT-22 cells (1×10^6 cells/mouse) were injected s.c. into the right axial mammary gland. Mice received s.c. injection or oral gavage daily or every second or third day, as indicated, with vehicle or FOXM1 inhibitor compound, and tumor growth was monitored over time.

[2] = Pharmacokinetic studies in mice after single s.c. or oral dose
Procedure: For s.c. injection, each compound was dissolved in DMSO and then mixed with corn oil for a total injection volume of 100 μL (10% DSMO+90% corn oil) per mouse. For oral gavage, compounds were administered in a 200 μL formulation of 9/0.5/0.5/90 parts of PEG400/Tween80/Povidone/0.5% Carboxymethylcellulose. […] Compounds were quantified by LC-MS/MS at the University of Illinois Metabolomics Core Facility. The data were fitted to a non-compartment model.

[3] = tested on: FOXM1 target genes in DT22 cells; experiment: FOXM1 target gene expression by qRT-PCR, DT22; type: cell-based, human; conditions: DT22, 24 h, at IC50 concentration
Source text: RNA was extracted from cells and expression of different genes was monitored by qRT-PCR. Assays were run in triplicate. Values are mean±SEM. *, p<0.05; **, p<0.01; ***, p<0.001. RNA isolation and real-time PCR Total RNA was isolated using TRIzol (Invitrogen) and reverse transcribed using […] reverse transcriptase (New England BioLabs). […] Relative mRNA levels of genes were normalized to the housekeeping gene 36B4, and fold change calculated relative to the vehicle treated samples. Results are the average±SD from at least two independent experiments carried out in triplicate. Primer sequences for the genes studied were obtained from the Harvard Primer Bank. Sequences are available on their website.

[4] = tested on: FOXM1 target genes in MCF7 cells; experiment: FOXM1 target gene expression by qRT-PCR, MCF7; type: cell-based, human; conditions: MCF7, 24 h, at IC50 concentration
Procedure: RNA was extracted from cells and expression of different genes was monitored by qRT-PCR. Assays were run in triplicate. Values are mean±SEM. *, p<0.05; **, p<0.01; ***, p<0.001. RNA isolation and real-time PCR Total RNA was isolated using TRIzol (Invitrogen) and reverse transcribed using […] reverse transcriptase (New England BioLabs). Real-time PCR was performed using SYBRgreen PCR Master Mix (Roche) as described (Bergamaschi et al., Breast Cancer Res., 2014, 16:436). Relative mRNA levels of genes were normalized to the housekeeping gene 36B4, and fold change calculated relative to the vehicle treated samples. Results are the average±SD from at least two independent experiments carried out in triplicate. Primer sequences for the genes studied were obtained from the Harvard Primer Bank. Sequences are available on their website.

[5] = tested on: FOXM1 cistrome genes in MDA-MB-231 cells; experiment: RNA-Seq Gene Set Enrichment Analysis, MDA-MB-231; type: cell-based, human; conditions: NB-73 […] 24 h, siFOXM1 25 nM 72 h
Procedure: RNA-Seq transcriptional profiling and gene ontology analysis For gene expression analysis, total RNA was extracted from cells using Trizol reagent and further cleaned using the Turbo DNase and RNAqueous kits (ThermoFisher). Cells were treated with Veh (0.1% EtOH), or with the compounds indicated for 9 h or 24 h. Once the sample quality and replicate reproducibility were verified, samples from each group were subjected to sequencing. RNA at a concentration of 100 ng/μL in nuclease-free water was used for library construction. cDNA libraries were prepared with the mRNA-TruSeq Kit (Illumina, Inc.). In brief, the poly-A containing mRNA was purified from total RNA, the RNA was fragmented, double-stranded cDNA was generated from fragmented RNA, and adapters were ligated to the ends.
The paired-end read data from the HiSeq 4000 were processed and analyzed through a series of steps. […] Reads were trimmed of adapters and low expression data using Trimmomatic version 0.38. The star alignment tool version 2.5.3a was used to align the sequenced reads to the GRCh37 human genome from Ensembl. Gene counts were calculated using subread version 1.5.2. […]
Gene Set Enrichment Analysis (GSEA) was used for examination of the genome-wide expression profiles. Overrepresented GO biological processes were determined by the web-based DAVID Bioinformatics Resources database.

[6] = tested on: tamoxifen-resistant MCF7 breast cancer cells; experiment: Proliferation of tamoxifen-resistant MCF7 cells; type: cell-based, human; conditions: 6 days
Procedure: Values are mean±SD of three separate assays. Cell proliferation assay WST-1 assay (Roche, Basel, Switzerland) was used to quantify cell viability as described (Gong et al., Mol. Cell Endocrinol., 2016, 437:190-200). Absorbance was measured at 450 nm using a VICTOR X5 PerkinElmer 2030 Multilabel Plate Reader. All assays were performed in triplicate.

Which results are given for `C[N+]1(CCCCCCOc2ccc(C(c3ccc(OCCCCCC[N+]4(C)CCCCCC4)cc3)=C3C4C[C@H]5C[C@@H](C4)C[C@H]3C5)cc2)CCCCCC1` [NB-73, 1,1′-((((((5r,7r)-adamantan-2-ylidene)methylene)bis(4,1-phenylene))bis(oxy))bis(hexane-6,1-diyl))bis(1-methylazepan-1-ium) diiodide]?
Growth of DT22 tumor xenografts ([1]; 5 mg/kg s.c. daily, every other day from day 21): reduced tumor growth; Expression of FOXM1-regulated genes in tumors ([1]; 5 mg/kg s.c.): significant reduction; Growth of DT22 tumor xenografts ([1]; 10 mg/kg s.c. daily, every other day from day 21): even more markedly suppressed growth; Expression of FOXM1-regulated genes in tumors ([1]; 10 mg/kg s.c.): greatly reduced; Tumor growth in vivo, low doses ([1]; 5 or 10 mg/kg s.c. every second or third day): greatly suppress tumor growth; Growth of DT22 tumor xenografts ([1]; s.c., 20 mg/kg every other day for first 10 days then 10 mg/kg every other day): greatly suppress tumor growth; half-life ([2]; female, CD-1, mouse, plasma, sc): 25 to 40 h; half-life ([2]; female, CD-1, mouse, plasma, sc, 60 mg/kg): 170 h; AUC(0-t) ([2]; female, CD-1, mouse, plasma, sc, 60 mg/kg, PK s.c. AUC0-48, mice, 60 mg/kg s.c.): 190 µM·h; PK p.o. AUC0-48 ([2]; mice, 60 mg/kg p.o.): too low to measure; Blood levels after oral administration ([2]; mice, oral, doses of FIGS. 6A-6B): very low levels; Blood levels after s.c. injection ([2]; mice, s.c., doses of FIGS. 6A-6B): very high blood levels; Expression of ATF3 (gene suppressed by FOXM1) [3]: increased; Expression of FOXM1 stimulated target genes (FOXM1C, AURKB, CCNB1, PLK1) [3]: significantly reduced; Expression of ATF3 (gene suppressed by FOXM1) [4]: increased; Expression of FOXM1 stimulated target genes (FOXM1C, AURKB, CCNB1, PLK1) [4]: significantly reduced; GSEA enrichment against FOXM1 target gene sets [5]: negative enrichment scores; Effect on proliferation of tamoxifen-resistant MCF7 cells [6]: effectively suppressed
